These results are taken from patent US12729368B2, “Methods and compositions for generating oligodendrocyte progenitor cells” (Trailhead Biosystems Inc., priority 2022, dated 2026).

The structures appear in SMILES notation.

This assay relates to OPCs. The experiment in a line: HD-DoE 12-factor model for stage 4 on OPCs, 6 days in culture. The class given is cell-based, human. The conditions noted are these: optimized for PLP1 at 3600; negative impact. As to the method: To engineer the recipe of stage 4 of differentiation, 48 or 96 different combinations of effectors generated using Design-of-Experiments compression through D-optimality were robotically prepared. The effector combinations were prepared in a basal media and were subsequently added to the cells, which were treated with the stage 1, stage 2 and stage 3 differentiation media as described in the earlier examples to generate OPCs. […] Solutions within the tested space could then be explored to address desirability. […] Benarroch (2009) Neurology 72:1779-1785; Shi et al. (2019) Exp Ther Med, 18:1258-1266).

Take `c1ccc2c(Oc3nc(Nc4ccc(N5CCOCC5)cc4)c4ncn(C5CCCCC5)c4n3)cccc2c1` [Purmorphamine]: the factor contribution stood at 10.
